Laboratory results as given in patent publication US9133115B2 (ACHILLION PHARMACEUTICALS, INC., priority 2008, dated 2015).

tested on: HCV replicon; assay: HCV replicon replication assay (NPT ELISA) in Huh-7 replicon-containing cells; format: cell-based; conditions: Hepatitis C virus, 72 h; HCV replicon in Huh-7 cells, three days incubation; read-out: EC50
In short: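 Replication was scored by capture ELISA of neomycin phosphotransferase, whose level tracks replicon replication, after graded compound treatment. The cells were Huh-7 harbouring an HCV-IRES/neo/EMCV-IRES/NS3–NS5B/3′-NTR replicon, plated at 6000-7500 cells/well and dosed 24 h later at 60-70% confluence; interferon alpha was the positive control.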

`C=CCC1(S(=O)(=O)NC(=O)[C@@]2(NC(=O)[C@@H]3C[C@@H](Oc4cc(-c5ccccc5)nc5cc(OC)ccc45)CN3C(=O)[C@@H](CC(=O)N3CCCCC3)C(C)(C)C)C[C@H]2C=C)CC1` [Compound 151] and `C=C[C@@H]1C[C@]1(NC(=O)[C@@H]1C[C@@H](Oc2cc(-c3ccccc3)nc3cc(OC)ccc23)CN1C(=O)[C@@H](CC(=O)N1CCCCC1)C(C)(C)C)C(=O)NS(=O)(=O)C1(Cl)CC1` [Compound 158, (2S,4R)-1-((S)-2-tert-butyl-4-oxo-4-(piperidin-1-yl)butanoyl)-N-((1R,2S)-1-(1-chlorocyclopropyl-sulfonyl-carbamoyl)-2-vinylcyclopropyl)-4-(7-methoxy-2-phenylquinolin-4-yloxy)pyrrolidine-2-carboxamide] cannot be ordered by EC50: less than 1000 nM for the first, less than 1000 nM for the second.

`C=C[C@@H]1C[C@]1(NC(=O)[C@@H]1C[C@@H](Oc2cc(-c3ccccn3)nc3c4c(ccc23)OCC4)CN1C(=O)[C@@H](CC(=O)N1CCCCC1)C(C)(C)C)C(=O)NS(=O)(=O)C1CC1` [Compound 152, (2S,4R)-1-((S)-2-tert-butyl-4-oxo-4-(piperidin-1-yl)butanoyl)-N-((1R,2S)-1-(cyclo-propylsulfonyl-carbamoyl)-2-vinylcyclopropyl)-4-(2-(pyridin-2-yl)-8,9-dihydrofuro[2,3-h]quinolin-4-yloxy)pyrrolidine-2-carboxamide] and `C=C[C@@H]1C[C@]1(NC(=O)[C@@H]1C[C@@H](Oc2cc(-c3ccccn3)nc3c4c(ccc23)OCC4)CN1C(=O)[C@@H](CC(=O)N1CCOCC1)C(C)(C)C)C(=O)NS(=O)(=O)C1CC1` [Compound 153, (2S,4R)-1-((S)-2-tert-butyl-4-morpholino-4-oxobutanoyl)-N-((1R,2S)-1-(cyclo-propylsulfonyl-carbamoyl)-2-vinylcyclopropyl)-4-(2-(pyridin-2-yl)-8,9-dihydrofuro[2,3-h]quinolin-4-yloxy)pyrrolidine-2-carboxamide] cannot be ordered by EC50: less than 1000 nM for the first, less than 1000 nM for the second.

Compared with `C=C[C@@H]1C[C@]1(NC(=O)[C@@H]1C[C@@H](OC(=O)N2c3ccccc3Oc3ccccc32)CN1C(=O)[C@@H](CC(=O)N1CCCCC1)C(C)(C)C)C(=O)NS(=O)(=O)C1CC1` [Compound 154, (3R,5S)-1-((S)-2-tert-butyl-4-oxo-4-(piperidin-1-yl)butanoyl)-5-((1R,2S)-1-(cyclo-propylsulfonyl-carbamoyl)-2-vinyl-cyclopropyl-carbamoyl)pyrrolidin-3-yl 10H-phenoxazine-10-carboxylate], `C=C[C@@H]1C[C@]1(NC(=O)[C@@H]1C[C@@H](OC(=O)n2c3ccc(Cl)cc3c3cc(Cl)ccc32)CN1C(=O)[C@@H](CC(=O)N1CCCCC1)C(C)(C)C)C(=O)NS(=O)(=O)C1CC1` [Compound 155, (3R,5S)-1-((S)-2-tert-butyl-4-oxo-4-(piperidin-1-yl)butanoyl)-5-((1R,2S)-1-(cyclo-propylsulfonyl-carbamoyl)-2-vinyl-cyclopropyl-carbamoyl)pyrrolidin-3-yl 3,6-dichloro-9H-carbazole-9-carboxylate] is lower in EC50: 1000 to 10000 nM for the first, less than 1000 nM for the second.

`C=CC1C[C@]1(NC(=O)[C@@H]1C[C@@H](Oc2cc(-c3ccccc3)nc3cc(OC)ccc23)CN1C(=O)[C@@H](CC(=O)N1CCCC(C(=O)N(CC)CC)C1)C(C)(C)C)C(=O)NS(=O)(=O)C1CC1` (stereo partly drawn) [Compound 159, 1-((S)-3-((2S,4R)-2-((1R,2S)-1-(cyclo-propylsulfonyl-carbamoyl)-2-vinyl-cyclopropyl-carbamoyl)-4-(7-methoxy-2-phenylquinolin-4-yloxy)pyrrolidine-1-carbonyl)-4,4-dimethylpentanoyl)-N,N-diethylpiper-idine-3-carboxamide] and `C=CC1C[C@]1(NC(=O)[C@@H]1C[C@@H](Oc2cc(-c3ccccc3)nc3cc(OC)ccc23)CN1C(=O)[C@@H](CC(=O)N1CCCC(C(=O)OCC)C1)C(C)(C)C)C(=O)NS(=O)(=O)C1CC1` (stereo partly drawn) [Compound 160, ethyl 1-((S)-3-((2S,4R)-2-((1R,2S)-1-(cyclopropyl-sulfonylcarbamoyl)-2-vinylcyclopropyl-carbamoyl)-4-(7-methoxy-2-phenylquinolin-4-yloxy)pyrrolidine-1-carbonyl)-4,4-dime-thylpentanoyl)piper-idine-3-carboxylate] cannot be ordered by EC50: less than 1000 nM for the first, less than 1000 nM for the second.

`C=C[C@@H]1C[C@]1(NC(=O)[C@@H]1C[C@@H](Oc2cc(-c3ccccc3)nc3cc(OC)ccc23)CN1C(=O)[C@@H](CC(=O)N1CCC(N(C)C(=O)OC(C)(C)C)C1)C(C)(C)C)C(=O)NS(=O)(=O)C1CC1` (stereo partly drawn) [Compound 161, tert-butyl 1-((S)-3-((2S,4R)-2-((1R,2S)-1-(cyclopropyl-sulfonylcarbamoyl)-2-vinylcyclopropyl-carbamoyl)-4-(7-methoxy-2-phenylquinolin-4-yloxy)pyrrolidine-1-carbonyl)-4,4-dimethyl-pentanoyl)pyrrolidin-3-yl(methyl)carbamate] and `C=C[C@@H]1C[C@]1(NC(=O)[C@@H]1C[C@@H](Oc2cc(-c3ccccc3)nc3cc(OC)ccc23)CN1C(=O)[C@@H](CC(=O)N1CCC[C@H](NC(=O)OC(C)(C)C)C1)C(C)(C)C)C(=O)NS(=O)(=O)C1CC1` [Compound 167] cannot be ordered by EC50: less than 1000 nM for the first, less than 1000 nM for the second.

`C=CC1C[C@]1(NC(=O)[C@@H]1C[C@@H](Oc2cc(-c3ccccc3)nc3cc(OC)ccc23)CN1C(=O)[C@@H](CC(=O)N1CCCC(C(F)(F)F)C1)C(C)(C)C)C(=O)NS(=O)(=O)C1CC1` (stereo partly drawn) [Compound 162, (2S,4R)-1-((2S)-2-tert-butyl-4-oxo-4-(3-(trifluoromethyl)pi-peridin-1-yl)butanoyl)-N-((1R,2S)-1-(cyclopropylsulfonyl-carbamoyl)-2-vinylcyclopropyl)-4-(7-methoxy-2-phenylquinolin-4-yloxy)pyrrolidine-2-carboxamide] and `C=CC1C[C@]1(NC(=O)[C@@H]1C[C@@H](Oc2cc(-c3ccccc3)nc3cc(OC)ccc23)CN1C(=O)[C@@H](CC(=O)N1CCCC(CNC(=O)OC(C)(C)C)C1)C(C)(C)C)C(=O)NS(=O)(=O)C1CC1` (stereo partly drawn) [Compound 168, tert-butyl (1-((S)-3-((2S,4R)-2-((1R,2S)-1-(cyclopropyl-sulfonylcarbamoyl)-2-vinylcyclopropyl-carbamoyl)-4-(7-methoxy-2-phenylquinolin-4-yloxy)pyrrolidine-1-carbonyl)-4,4-dime-thylpentanoyl)piper-idin-3-yl)methylcarbamate] cannot be ordered by EC50: less than 1000 nM for the first, less than 1000 nM for the second.

`C=CC1C[C@]1(NC(=O)[C@@H]1C[C@@H](Oc2cc(-c3ccccc3)nc3cc(OC)ccc23)CN1C(=O)[C@@H](CC(=O)N1C(C)CCCC1C)C(C)(C)C)C(=O)NS(=O)(=O)C1CC1` (stereo partly shown) [Compound 163] and `C=C[C@@H]1C[C@]1(NC(=O)[C@@H]1C[C@@H](Oc2cc(-c3ccccc3)nc3cc(OC)ccc23)CN1C(=O)[C@@H](CC(=O)N1C2CCC1CC(=O)C2)C(C)(C)C)C(=O)NS(=O)(=O)C1CC1` [Compound 169, (2S,4R)-1-((2S)-2-tert-butyl-4-oxo-4-(3-oxo-8-aza-bicyclo[3.2.1]octan-8-yl)butanoyl)-N-((1R,2S)-1-(cyclopropyl-sulfonylcarbamoyl)-2-vinylcyclopropyl)-4-(7-methoxy-2-phenylquinolin-4-yloxy)pyrrolidine-2-carboxamide] cannot be ordered by EC50: less than 1000 nM for the first, less than 1000 nM for the second.

`C=CC1C[C@]1(NC(=O)[C@@H]1C[C@@H](Oc2cc(-c3ccccc3)nc3cc(OC)ccc23)CN1C(=O)[C@@H](CC(=O)N1CCN(C(=O)OC(C)(C)C)CC1)C(C)(C)C)C(=O)NS(=O)(=O)C1CC1` (stereo partly drawn) [Compound 164, tert-butyl 4-((S)-3-((2S,4R)-2-((1R,2S)-1-(cyclopropyl-sulfonylcarbamoyl)-2-vinylcyclopropyl-carbamoyl)-4-(7-methoxy-2-phenylquinolin-4-yloxy)pyrrolidine-1-carbonyl)-4,4-dime-thylpentanoyl)piper-azine-1-carboxylate] and `C=C[C@@H]1C[C@]1(NC(=O)[C@@H]1C[C@@H](Oc2cc(-c3ccccc3)nc3cc(OC)ccc23)CN1C(=O)[C@@H](CC(=O)N1CC2C3CCC(C)(O3)C2C1)C(C)(C)C)C(=O)NS(=O)(=O)C1CC1` (stereo partly shown) [Compound 170] cannot be ordered by EC50: less than 1000 nM for the first, less than 1000 nM for the second.

`C=C[C@@H]1C[C@]1(NC(=O)[C@@H]1C[C@@H](Oc2cc(-c3ccccn3)nc3cc(OC)ccc23)CN1C(=O)[C@@H](CC(=O)N1CCCCC1)C(C)(C)C)C(=O)NS(=O)(=O)C1CC1` [Compound 165, (2S,4R)-1-((S)-2-tert-butyl-4-oxo-4-(piperidin-1-yl)butanoyl)-N-((1R,2S)-1-(cyclo-propylsulfonyl-carbamoyl)-2-vinyl-cyclopropyl)-4-(7-methoxy-2-(pyridin-2-yl)quinolin-4-yloxy)pyrrolidine-2-carboxamide] and `C=C[C@@H]1C[C@]1(NC(=O)[C@@H]1C[C@@H](Oc2cc(-c3ccccn3)nc3cc(OC)ccc23)CN1C(=O)[C@@H](CC(=O)N1CCOCC1)C(C)(C)C)C(=O)NS(=O)(=O)C1CC1` [Compound 166, (2S,4R)-1-((S)-2-tert-butyl-4-morpholino-4-oxobutanoyl)-N-((1R,2S)-1-(cyclopropylsulfonyl-carbamoyl)-2-vinylcyclopropyl)-4-(7-methoxy-2-(pyridin-2-yl)quinolin-4-yloxy)pyrrolidine-2-carboxamide] cannot be ordered by EC50: less than 1000 nM for the first, less than 1000 nM for the second.

Work on `C=C[C@@H]1C[C@]1(NC(=O)[C@@H]1C[C@@H](NC(=O)c2cc(-c3ccccc3)nc3ccccc23)CN1C(=O)[C@@H](CC(=O)N1CCCCC1)C(C)(C)C)C(=O)NS(=O)(=O)C1CC1` [Compound 171, N-((3R,5S)-1-((S)-2-tert-butyl-4-oxo-4-(piperidin-1-yl)butanoyl)-5-((1R,2S)-1-(cyclopropyl-sulfonylcarbamoyl)-2-vinylcyclo-propylcarbamo-yl)pyrrolidin-3-yl)-2-phenylquinoline-4-carboxamide] yielded an EC50 of less than 1000 nM.
